What was measured:
Experiment in all cases: relative viability (nuclei count vs DMSO), 5 days (fraction); higher = more cells survive
EMC-BAC-2 = test system: EMC-BAC-2
In short: (§1)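 Relative viability was taken as the ratio of nuclei in treated wells to nuclei in vehicle wells. Lung cancer cell lines in 1536-well plates received compounds by pin tool one day after seeding, either one drug alone or a fixed anchor-drug dose plus five library-drug doses (not always all listed) in √10 steps. Nuclei were counted on 4× images after 5 days of treatment, and values are medians of duplicate plates.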

NCI-H2085 = test system: NCI-H2085
In short: as §1

NCI-H2023 = test system: NCI-H2023
In short: as §1

UMC-11 = test system: UMC-11
In short: as §1

CAL-12T = test system: CAL-12T
In short: as §1

NCI-H1993 = test system: NCI-H1993
In short: as §1

HCC-15 = test system: HCC-15
In short: as §1

NCI-H3122 = test system: NCI-H3122
In short: as §1

EPLC-272H = test system: EPLC-272H
In short: as §1

NCI-H2126 = test system: NCI-H2126
In short: as §1

COR-L 105 = test system: COR-L 105
In short: as §1

NCI-H358 = test system: NCI-H358
In short: as §1

HOP-62 = test system: HOP-62
In short: as §1

NCI-H1666 = test system: NCI-H1666
In short: as §1

NCI-H1975 = test system: NCI-H1975
In short: as §1

LXF-289 = test system: LXF-289
In short: as §1

HCC-78 = test system: HCC-78
In short: as §1

NCI-H441 = test system: NCI-H441
In short: as §1

NCI-H322M = test system: NCI-H322M
In short: as §1

NCI-H1915 = test system: NCI-H1915
In short: as §1

ChaGo-K-1 = test system: ChaGo-K-1
In short: as §1

NCI-H1755 = test system: NCI-H1755
In short: as §1

Structure (SMILES): CC1(C)CCC(c2ccc(Cl)cc2)=C(CN2CCN(c3ccc(C(=O)NS(=O)(=O)c4ccc(N[C@H](CCN5CCOCC5)CSc5ccccc5)c(S(=O)(=O)C(F)(F)F)c4)cc3)CC2)C1 [Navitoclax] + CC(=O)Nc1cccc(-n2c(=O)n(C3CC3)c(=O)c3c(Nc4ccc(I)cc4F)n(C)c(=O)c(C)c32)c1 [Trametinib] (partner 0.02 µM)
- relative viability (EMC-BAC-2; first compound 0.005 µM): 0.728
- relative viability (EMC-BAC-2; first compound 0.01581 µM): 0.87
- relative viability (EMC-BAC-2; first compound 0.05 µM): 0.866
- relative viability (EMC-BAC-2; first compound 0.1581 µM): 0.848
- relative viability (EMC-BAC-2; first compound 0.5 µM): 0.806
- relative viability (NCI-H2085; first compound 0.005 µM): 0.567
- relative viability (NCI-H2085; first compound 0.01581 µM): 0.645
- relative viability (NCI-H2085; first compound 0.05 µM): 0.402
- relative viability (NCI-H2085; first compound 0.1581 µM): 0.621
- relative viability (NCI-H2085; first compound 0.5 µM): 0.552
- relative viability (NCI-H2023; first compound 0.005 µM): 0.556
- relative viability (NCI-H2023; first compound 0.01581 µM): 0.724
- relative viability (NCI-H2023; first compound 0.05 µM): 0.554
- relative viability (NCI-H2023; first compound 0.1581 µM): 0.5
- relative viability (NCI-H2023; first compound 0.5 µM): 0.547
- relative viability (UMC-11; first compound 0.005 µM): 0.658
- relative viability (UMC-11; first compound 0.01581 µM): 0.703
- relative viability (UMC-11; first compound 0.05 µM): 0.483
- relative viability (UMC-11; first compound 0.1581 µM): 0.574
- relative viability (UMC-11; first compound 0.5 µM): 0.321
- relative viability (CAL-12T; first compound 0.005 µM): 0.348
- relative viability (CAL-12T; first compound 0.01581 µM): 0.373
- relative viability (CAL-12T; first compound 0.05 µM): 0.351
- relative viability (CAL-12T; first compound 0.1581 µM): 0.331
- relative viability (CAL-12T; first compound 0.5 µM): 0.311
- relative viability (NCI-H1993; first compound 0.005 µM): 0.521
- relative viability (NCI-H1993; first compound 0.01581 µM): 0.513
- relative viability (NCI-H1993; first compound 0.05 µM): 0.508
- relative viability (NCI-H1993; first compound 0.1581 µM): 0.454
- relative viability (NCI-H1993; first compound 0.5 µM): 0.642
- relative viability (HCC-15; first compound 0.005 µM): 0.329
- relative viability (HCC-15; first compound 0.01581 µM): 0.432
- relative viability (HCC-15; first compound 0.05 µM): 0.332
- relative viability (HCC-15; first compound 0.1581 µM): 0.401
- relative viability (HCC-15; first compound 0.5 µM): 0.35
- relative viability (NCI-H3122; first compound 0.005 µM): 0.243
- relative viability (NCI-H3122; first compound 0.01581 µM): 0.221
- relative viability (NCI-H3122; first compound 0.05 µM): 0.217
- relative viability (NCI-H3122; first compound 0.1581 µM): 0.222
- relative viability (NCI-H3122; first compound 0.5 µM): 0.211
- relative viability (EPLC-272H; first compound 0.005 µM): 0.239
- relative viability (EPLC-272H; first compound 0.05 µM): 0.272
- relative viability (EPLC-272H; first compound 0.1581 µM): 0.298
- relative viability (EPLC-272H; first compound 0.5 µM): 0.277
- relative viability (NCI-H2126; first compound 0.005 µM): 0.554
- relative viability (NCI-H2126; first compound 0.01581 µM): 0.639
- relative viability (NCI-H2126; first compound 0.05 µM): 0.638
- relative viability (NCI-H2126; first compound 0.1581 µM): 0.524
- relative viability (NCI-H2126; first compound 0.5 µM): 0.561
- relative viability (COR-L 105; first compound 0.005 µM): 0.441
- relative viability (COR-L 105; first compound 0.01581 µM): 0.476
- relative viability (COR-L 105; first compound 0.05 µM): 0.428
- relative viability (COR-L 105; first compound 0.1581 µM): 0.447
- relative viability (COR-L 105; first compound 0.5 µM): 0.379
- relative viability (NCI-H358; first compound 0.005 µM): 0.131
- relative viability (NCI-H358; first compound 0.01581 µM): 0.148
- relative viability (NCI-H358; first compound 0.05 µM): 0.114
- relative viability (NCI-H358; first compound 0.1581 µM): 0.133
- relative viability (NCI-H358; first compound 0.5 µM): 0.146
- relative viability (HOP-62; first compound 0.005 µM): 0.377
- relative viability (HOP-62; first compound 0.01581 µM): 0.404
- relative viability (HOP-62; first compound 0.05 µM): 0.362
- relative viability (HOP-62; first compound 0.1581 µM): 0.365
- relative viability (HOP-62; first compound 0.5 µM): 0.39
- relative viability (NCI-H1666; first compound 0.005 µM): 0.933
- relative viability (NCI-H1666; first compound 0.01581 µM): 0.937
- relative viability (NCI-H1666; first compound 0.05 µM): 0.928
- relative viability (NCI-H1666; first compound 0.1581 µM): 0.903
- relative viability (NCI-H1666; first compound 0.5 µM): 0.931
- relative viability (NCI-H1975; first compound 0.005 µM): 0.427
- relative viability (NCI-H1975; first compound 0.01581 µM): 0.409
- relative viability (NCI-H1975; first compound 0.05 µM): 0.236
- relative viability (NCI-H1975; first compound 0.1581 µM): 0.399
- relative viability (NCI-H1975; first compound 0.5 µM): 0.316
- relative viability (LXF-289; first compound 0.005 µM): 0.649
- relative viability (LXF-289; first compound 0.01581 µM): 0.709
- relative viability (LXF-289; first compound 0.05 µM): 0.633
- relative viability (LXF-289; first compound 0.1581 µM): 0.69
- relative viability (LXF-289; first compound 0.5 µM): 0.692
- relative viability (HCC-78; first compound 0.005 µM): 0.653
- relative viability (HCC-78; first compound 0.01581 µM): 0.826
- relative viability (HCC-78; first compound 0.05 µM): 0.59
- relative viability (HCC-78; first compound 0.1581 µM): 0.727
- relative viability (HCC-78; first compound 0.5 µM): 0.727
- relative viability (NCI-H441; first compound 0.005 µM): 0.534
- relative viability (NCI-H441; first compound 0.01581 µM): 0.616
- relative viability (NCI-H441; first compound 0.05 µM): 0.349
- relative viability (NCI-H441; first compound 0.1581 µM): 0.448
- relative viability (NCI-H441; first compound 0.5 µM): 0.553
- relative viability (NCI-H322M; first compound 0.005 µM): 0.538
- relative viability (NCI-H322M; first compound 0.01581 µM): 0.533
- relative viability (NCI-H322M; first compound 0.05 µM): 0.453
- relative viability (NCI-H322M; first compound 0.1581 µM): 0.484
- relative viability (NCI-H322M; first compound 0.5 µM): 0.539
- relative viability (NCI-H1915; first compound 0.005 µM): 0.287
- relative viability (NCI-H1915; first compound 0.01581 µM): 0.327
- relative viability (NCI-H1915; first compound 0.05 µM): 0.297
- relative viability (NCI-H1915; first compound 0.1581 µM): 0.314
- relative viability (NCI-H1915; first compound 0.5 µM): 0.331
- relative viability (ChaGo-K-1; first compound 0.005 µM): 0.812
- relative viability (ChaGo-K-1; first compound 0.01581 µM): 0.859
- relative viability (ChaGo-K-1; first compound 0.05 µM): 0.451
- relative viability (ChaGo-K-1; first compound 0.1581 µM): 0.904
- relative viability (ChaGo-K-1; first compound 0.5 µM): 0.837
- relative viability (NCI-H1755; first compound 0.005 µM): 0.743
- relative viability (NCI-H1755; first compound 0.01581 µM): 0.774
- relative viability (NCI-H1755; first compound 0.05 µM): 0.662
- relative viability (NCI-H1755; first compound 0.1581 µM): 0.764
- relative viability (NCI-H1755; first compound 0.5 µM): 0.802

From the supplement of paper PMC10307832
